Experimental data as given in patent publication US20260183408A1, “POLYPEPTIDE AND USE THEREOF” (SHENZHEN CHENYANG BIOLOGICAL TECHNOLOGY CO., LTD, priority 2022, published 2026).

Legend:
[1] = system: CRS mice; assay: Elevated plus maze (EPM) test; assay type: in vivo, mouse; conditions: single intraperitoneal 3 nmol/g, 1 hour later (FIG. 14)
Experimental: (§1) The C57BL/6J mice were horizontally fixed for 6 h (from 10 to 16 o'clock) in a first acrylic restraint which is cylindrical and flat-bottomed (25×90 mm) every day for 2 weeks. The filter had several slots which could adapt to the size of each mouse to firmly restrain the mouse and inhibit body movements of the limb and trunk without causing pain. Immediately after being restrained, the mice were sent back to their cages. Unrestrained mice (control) stayed in their cages when no CRS procedure was performed. Neither the control mice nor the CRS mice could have access to food and water during the CRS exposure.
In order to evaluate the anti-anxiety-like effect of the polypeptide of the present invention, a CRS mouse model was established using the method in Example 6. […]
EPM: The device consisted of two open arms (25 cm×8 cm) and two closed arms (25 cm×8 cm) with the intersection as the central area (8 cm×8 cm), elevated 40 cm above the ground. One hour after the polypeptide treatment, the mice were placed in the central area facing an open arm, and their free movements were recorded for 5 min. […] The time spent in an open arm, the time spent in a closed arm, and the total moving distance of the mice were recorded.

[2] = system: CRS mice; assay: Forced swimming test (FST); assay type: in vivo, mouse; conditions: single intraperitoneal 3 nmol/g, 1 hour after treatment, compared with TAT-treated mice (FIG. 12)
Experimental: as §1
The C57BL/6J mice were subjected to various stress including restraint (for 4 h), cage tilting (for 45 times, with 12 h each time), light-dark cycle reversal (once), flash (for 12 h), and dirty cage (for 2 times, with 14 h each time). The protocol lasted 6 weeks. Control mice were not subjected to corresponding stress.
The mice were treated with TAT or TAT-D2R-KL (single intraperitoneal administration at 3 nmol/g in both cases). […]
FST: The mice were placed in a cylinder (having a height of 70 cm and a diameter of 30 cm) made of organic glass and filled with water (with water temperature at 23±1° C.), wherein the water level was more than 30 cm from the bottom. The mice were recorded in video for 5 min, then the video was analyzed, and the immobility time was recorded. […]

[3] = target: T1, D2R/5-HT2CR complex (Homo sapiens, UniProt P28335); assay: Co-immunoprecipitation / Western blotting of polypeptide-treated 293T cells; assay type: cell-based; conditions: 293T cells transfected with 5-HT2CR and D2R, in the presence of 5-HT2CR and D2R agonists, TAT as control (FIG. 6)
T1 construct: host or cells: human 293T cells
T1 sequence (P28335 33-458): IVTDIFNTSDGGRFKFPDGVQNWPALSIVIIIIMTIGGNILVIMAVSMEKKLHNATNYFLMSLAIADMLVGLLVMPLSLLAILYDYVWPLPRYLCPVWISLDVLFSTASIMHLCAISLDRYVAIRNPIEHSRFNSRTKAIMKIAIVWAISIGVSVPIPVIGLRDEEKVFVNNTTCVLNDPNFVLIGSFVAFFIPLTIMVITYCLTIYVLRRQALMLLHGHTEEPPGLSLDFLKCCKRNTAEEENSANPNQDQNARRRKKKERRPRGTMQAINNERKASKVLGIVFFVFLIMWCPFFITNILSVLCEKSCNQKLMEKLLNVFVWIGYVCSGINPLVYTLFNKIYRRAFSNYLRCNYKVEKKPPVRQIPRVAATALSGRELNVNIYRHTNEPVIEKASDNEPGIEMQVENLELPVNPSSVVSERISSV
Experimental: Co-immunoprecipitation was performed using protein samples (with 100-500 μg protein) from the hippocampal tissue of the Balb/c mice. Mouse monoclonal antibodies against both 5-HT2CR and D2R, D2R, or 5-HT2CR were used for precipitation with 25 μl of the slurry of protein A/G+agarose beads (SantaCruz Biotechnology, sc-2001).
Western blotting analysis after precipitation: Denatured (at 100° C. for 10 min) proteins were separated on an 8% SDS-PAGE gel, then transferred to a nitrocellulose membrane, which was then blocked with skim milk in TBST (Tris-buffered saline with 0.1% Tween 20). Next, incubation was carried out with the primary antibodies at 4° C. overnight. Finally, treatment with an HRP-conjugated secondary antibody were performed for 1 h, signals were detected using the ECL UltraSignal chemiluminescence kit (4A Biotech, cat. no. 4AW011-500), and the bands were analyzed for densities using the Image Lab software.
Next, the 293T cells were treated with TAT-D2R-KL in the presence of 5-HT2CR and D2R agonists, while treatment with TAT was used as a control. The specific process was shown in FIG. 5, where the human 293T cell line was cultured in a high-glucose modified Eagle's medium (DMEM) supplemented with 10% fetal bovine serum (FBS). The cells were maintained in an atmosphere of 95% air and 5% carbon dioxide in an incubator at 37° C. […]

Substance: TAT-D2R-KL: C-terminus of the KL (K226-L240) region of D2R fused to the transduction domain of HIV-1 Tat protein (SEQ ID NO: 5)
- time spent in an open arm [1]: significantly increased
- immobility time (FST) [2]: significantly reduced
- interaction between 5-HT2CR and D2R [3]: significantly reduced
